Data reported in paper PMC9104950, “Stereoselective Covalent Adduct Formation of Acyl Glucuronide Metabolite of Nonsteroidal Anti-Inflammatory Drugs with UDP-Glucuronosyltransferase” (International Journal of Molecular Sciences, 2022).

What was measured:
[1] = system: proteins of Mic (microsomal fraction of liver homogenate); experiment: Covalent adduct formation of NSAIDs-AG with proteins of microsomal fraction (Mic); conditions: for covalent adduct formation with Mic proteins: protein 1 mg/mL
[2] = system: proteins of Nuc (nuclear fraction of liver homogenate); experiment: Covalent adduct formation of NSAIDs-AG with proteins of nuclear fraction (Nuc); assay type: binding, rat; conditions: 180 μM, 6 h; for covalent adduct formation with Nuc proteins: protein 1 mg/mL, 37 °C
UGT2B7 = molecular target: T1, UGT2B7 (Homo sapiens, UniProt P16662); experiment: Covalent adduct formation of NSAIDs-AG with UGT2B7; assay type: binding; conditions: 180 μM, UGT 3.4 μM, 6 h; for covalent adduct formation with UGT2B7: 37 °C
T1 construct: purchased Corning, Inc
T1 sequence (P16662 24-529): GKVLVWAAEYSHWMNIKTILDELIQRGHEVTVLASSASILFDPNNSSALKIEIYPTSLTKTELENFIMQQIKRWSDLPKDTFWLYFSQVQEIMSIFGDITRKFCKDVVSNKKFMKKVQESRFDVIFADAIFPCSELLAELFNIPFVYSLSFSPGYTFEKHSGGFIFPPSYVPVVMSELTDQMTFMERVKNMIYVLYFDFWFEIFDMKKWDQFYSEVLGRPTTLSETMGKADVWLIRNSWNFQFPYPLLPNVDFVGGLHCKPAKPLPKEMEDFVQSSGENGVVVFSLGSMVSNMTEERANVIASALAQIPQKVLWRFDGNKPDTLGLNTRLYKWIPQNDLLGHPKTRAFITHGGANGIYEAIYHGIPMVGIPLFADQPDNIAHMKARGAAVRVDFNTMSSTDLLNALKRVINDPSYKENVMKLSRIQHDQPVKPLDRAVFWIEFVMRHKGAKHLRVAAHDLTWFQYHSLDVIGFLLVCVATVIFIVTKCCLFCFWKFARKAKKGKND
Method: (§1) The concentrations of UGT were set at 3.4 μM by the preliminary experiments on the linearity of covalent adduct formation. The covalent adduct formation of NSAIDs-AG with organelle proteins and UGT was determined according to previous reports on NSAIDs-AG with albumin with some modifications. After a deproteinization of the reaction mixture, methanol/diethyl ether (3:1) was added to the pellet. […] The concentrations of the parent NSAIDs were measured using liquid chromatography-tandem mass spectrometry (LC-MS/MS). Aliquots of 10 μL were injected into the LC-MS/MS system. The LC-MS/MS equipment consisted of an LC system (UltiMate 3000 series, Thermo Fisher Scientific, Inc.) and TSQ Endura Triple Quadrupole Mass Spectrometer with electrospray ionization (Thermo Fisher Scientific, Inc.). Finnigan Xcalibur software (Thermo Fisher Scientific, Inc.) was used for data recording and analysis. Analysis was further performed using a reversed-phase column (COSMOSIL 5C18-MSII, 2.0 mm × 150 mm, 5 μm; Nacalai Tesque, Inc.). The column temperature was set to 40 °C, and the autosampler was maintained at 10 °C. The mobile phase (A; 30% methanol in 8.5 mM ammonium formate and 0.0075% formic acid, and B; 90% methanol in 8.5 mM ammonium formate and 0.0075% formic acid) was pumped at a flow rate of 0.2 mL/min. The initial mobile phase composition was maintained at 30% mobile phase B for 1 min, changed linearly to 90% mobile phase B from 1 to 8 min, maintained for 1 min, returned to 30% mobile phase B from 9 to 10 min, and maintained for 1 min for chromatographic column equilibrium. The MS scan was operated in positive ionization mode for DIC, MEF, ZOM, KET, and NAP, or negative ionization mode, for FLU. The conditions for electrospray ionization were set at 3500 V spray voltage for positive ionization mode and 2500 V spray voltage for negative ionization mode at 400 °C capillary temperature, and 300 °C vaporizer temperature with 40 arbitrary units of nitrogen sheath gas and 10 arbitrary units of auxiliary gas. The MS scan was operated in the positive or negative ionization mode. The selected reaction monitoring (SRM) mode was used, with argon as the collision gas at 1.5 mTorr. The mass resolution was set at 0.7 full-width at half-height (unit resolution). SRM transitions (precursor and product ions) were mass to charge ratios of (m/z) 296 > 214 for DIC (positive ionization mode), 294 > 250 for DIC (negative ionization mode), 242 > 224 for MEF, 292 > 139 for ZOM, 243 > 198 for R- and S-FLU, 255 > 209 for R- and S-KET, 231 > 185 for R- and S-NAP, and 302 > 220 for DIC-d4. The collision energies were 15 V for DIC (negative ionization mode), ZOM, MEF, FLU, KET, and NAP; 35 V for DIC (positive ionization mode); and DIC-d4. The concentrations of NSAIDs were determined from a single-point calibration in every assay for NSAIDs after confirmation of linearity between area and concentrations of NSAIDs.

[3] = system: proteins of Mit (mitochondrial fraction of liver homogenate); experiment: Covalent adduct formation of NSAIDs-AG with proteins of mitochondrial fraction (Mit); assay type: binding, rat; conditions: 180 μM, 6 h; for covalent adduct formation with Mit proteins: protein 1 mg/mL, 37 °C
[4] = set-up: method as in PMID 20606003, PMID 1673415; conditions: phosphate buffers (pH 7.4); cited from earlier work
UGT1A9 = molecular target: T2, UGT1A9 (Homo sapiens, UniProt O60656); experiment: Covalent adduct formation of NSAIDs-AG with UGT1A9; assay type: binding; conditions: 180 μM, UGT 3.4 μM, 6 h
T2 construct: purchased Corning, Inc
T2 sequence (O60656 26-530): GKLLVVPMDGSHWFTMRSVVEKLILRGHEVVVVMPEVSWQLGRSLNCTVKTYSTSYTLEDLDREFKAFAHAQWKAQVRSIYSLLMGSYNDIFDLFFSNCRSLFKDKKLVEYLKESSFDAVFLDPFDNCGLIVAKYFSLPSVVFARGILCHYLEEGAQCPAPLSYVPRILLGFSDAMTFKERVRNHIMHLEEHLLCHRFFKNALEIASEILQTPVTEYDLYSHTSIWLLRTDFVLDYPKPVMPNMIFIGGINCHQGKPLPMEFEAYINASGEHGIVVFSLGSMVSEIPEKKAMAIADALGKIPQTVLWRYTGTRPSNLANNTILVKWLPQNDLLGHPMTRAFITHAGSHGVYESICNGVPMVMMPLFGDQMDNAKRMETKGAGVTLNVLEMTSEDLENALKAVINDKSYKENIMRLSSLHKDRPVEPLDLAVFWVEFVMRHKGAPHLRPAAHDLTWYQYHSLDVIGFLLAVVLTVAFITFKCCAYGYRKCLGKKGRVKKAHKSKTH
Method: as §1, with “The conditions for electrospray ionization were set at 3500 V spray voltage for positive ionization mode and 2500 V spray voltage for negative ionization mode at 400 °C capillary temperature, and 300 °C vaporizer temperature with 40 arbitrary units of nitrogen sheath gas and 10 arbitrary units of auxiliary gas. The MS scan was operated in the positive or negative ionization mode. The selected reaction monitoring (SRM) mode was used, with argon as the collision gas at 1.5 mTorr. The mass resolution was set at 0.7 full-width at half-height (unit resolution). SRM transitions (precursor and product ions) were mass to charge ratios of (m/z) 296 > 214 for DIC (positive ionization mode), 294 > 250 for DIC (negative ionization mode), 242 > 224 for MEF, 292 > 139 for ZOM, 243 > 198 for R- and S-FLU, 255 > 209 for R- and S-KET, 231 > 185 for R- and S-NAP, and 302 > 220 for DIC-d4. The collision energies were 15 V for DIC (negative ionization mode), ZOM, MEF, FLU, KET, and NAP; 35 V for DIC (positive ionization mode); and DIC-d4.” left out

[5] = system: proteins of Cyt (cytosolic fraction of liver homogenate); experiment: Covalent adduct formation of NSAIDs-AG with proteins of cytosolic fraction (Cyt); assay type: binding, rat; conditions: 180 μM, 6 h; for covalent adduct formation with Cyt proteins: protein 1 mg/mL, 37 °C
UGT2B4 = molecular target: T3, UGT2B4 (Homo sapiens, UniProt P06133); experiment: Covalent adduct formation of NSAIDs-AG with UGT2B4; assay type: binding; conditions: R vs S diastereomer; 180 μM, UGT 3.4 μM, 6 h
T3 construct: purchased Corning, Inc
T3 sequence (P06133 24-528): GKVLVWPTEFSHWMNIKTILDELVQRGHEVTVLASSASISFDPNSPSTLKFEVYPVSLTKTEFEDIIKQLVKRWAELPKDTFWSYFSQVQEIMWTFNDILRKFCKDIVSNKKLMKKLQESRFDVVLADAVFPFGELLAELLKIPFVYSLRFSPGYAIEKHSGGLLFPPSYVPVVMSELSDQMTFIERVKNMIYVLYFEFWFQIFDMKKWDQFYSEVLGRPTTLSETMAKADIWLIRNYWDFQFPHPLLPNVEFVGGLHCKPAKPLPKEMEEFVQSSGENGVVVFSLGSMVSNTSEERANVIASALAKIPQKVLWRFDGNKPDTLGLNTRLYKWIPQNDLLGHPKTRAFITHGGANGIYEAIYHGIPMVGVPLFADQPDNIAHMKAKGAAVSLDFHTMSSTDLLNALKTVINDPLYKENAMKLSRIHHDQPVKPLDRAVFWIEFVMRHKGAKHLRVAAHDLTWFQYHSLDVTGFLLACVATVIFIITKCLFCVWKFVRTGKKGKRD
Method: as §1

Row | Compound | covalent adducts with organelle proteins (Mic) relative to R-KET-AG ([1]; 180 μM, 1 mg/mL, 6 h) | covalent adduct formation with Mic proteins ([1]; 180 μM, 6 h, 37 °C) | number of covalent adducts with the proteins of Mic, effect of concentration and incubation time ([1]; DIC-AG 120-600 μM for 6 h, 180 μM for 1-24 h, Mic 1 mg/mL, 37 °C) | covalent adducts with organelle proteins (Nuc) relative to R-KET-AG ([2]; 1 mg/mL) | covalent adduct formation with Nuc proteins [2] | amounts of covalent adducts with UGT2B7 compared with UGT1A9 (UGT2B7) | capacity to form covalent adducts with UGT2B7 relative to mefenamic acid-AG (UGT2B7) | covalent adduct formation with UGT2B7 (UGT2B7) | covalent adducts with organelle proteins (Mit) relative to R-KET-AG ([3]; 1 mg/mL) | covalent adduct formation with Mit proteins [3] | half-lives in buffers [4] | capacity to form covalent adducts with UGT1A9 relative to mefenamic acid-AG (UGT1A9) | covalent adducts with organelle proteins (Cyt) relative to R-KET-AG ([5]; 1 mg/mL) | covalent adduct formation with Cyt proteins [5] | covalent adduct formation with UGT2B7 compared with the other diastereomer (UGT2B7; R vs S diastereomer) | covalent adduct formation with UGT2B4 compared with the other diastereomer (UGT2B4)
1 | O=C(Cc1ccccc1Nc1c(Cl)cccc1Cl)O[C@@H]1O[C@H](C(=O)O)[C@@H](O)[C@H](O)[C@H]1O [DIC-AG] | approximately twice as high | formed covalent adducts | increased in a concentration- and time-dependent manner | approximately twice as high | formed covalent adducts | significantly lower amounts of covalent adducts | approximately 10 times | higher amounts of covalent adducts | approximately twice as high | formed covalent adducts | relatively short half-lives | approximately 10 times | approximately twice as high | formed covalent adducts |  | 
2 | CC(C(=O)O[C@@H]1O[C@H](C(=O)O)[C@@H](O)[C@H](O)[C@H]1O)c1cccc(C(=O)c2ccccc2)c1 (stereo partly shown) [KET-AG] |  | formed covalent adducts |  |  | formed covalent adducts |  |  |  |  | formed covalent adducts |  |  |  | formed covalent adducts | remarkably stereoselective formation of a covalent adduct | remarkably stereoselective formation of a covalent adduct
3 | COc1ccc2cc(C(C)C(=O)O[C@@H]3O[C@H](C(=O)O)[C@@H](O)[C@H](O)[C@H]3O)ccc2c1 (stereo partly shown) [NAP-AG] |  |  |  |  |  |  |  | higher amounts of covalent adducts |  |  | relatively short half-lives |  |  |  |  | 
